According to patent US20140148443A1, “Novel Imidazolines as dual inhibitors of MDM2 and MDMX” (priority 2012, published 2014):
pIC50: −log10 of the molar value.

Tests used:
[1] = molecular target: recombinant GST-tagged MDM2 (Homo sapiens, UniProt Q00987); assay: HTRF assay of interaction between p53 peptide and GST-tagged MDM2; conditions: inhibition of GST-MDM2 (160 ng/ml) binding to biotinylated p53-peptide
Description: The ability of a test compound to inhibit the interaction between p53 and MDM2 protein was measured by an HTRF (homogeneous time-resolved fluorescence) assay in which recombinant GST-tagged MDM2 binds to a peptide that resembles the MDM2-interacting region of p53 Aca-[…]-OH hereinafter p53-peptide). Binding of GST-MDM2 protein and p53-peptide (biotinylated on its N-terminal end) is registered by the FRET (fluorescence resonance energy transfer) between Europium (Eu)-labeled anti-GST antibody and streptavidin-conjugated Allophycocyanin (APC).
The test was performed in black flat-bottom 384-well plates (Costar) in a total volume of 40 uL containing: 90 nM biotinylated peptide, 160 ng/ml GST-MDM2, 20 nM streptavidin-APC (PerkinElmerWallac), 2 nM Eu-labeled anti-GST-antibody (PerkinElmerWallac), 0.02% bovine serum albumin (BSA), 1 mM dithiothreitol (DTT) and 20 mM […] (TBS) buffer as follows: add 10 uL of GST-MDM2 (640 ng/ml working solution) in reaction buffer to each well. Add 10 uL diluted compounds (1:5 dilution in reaction buffer) to each well, mix by shaking. Add 20 uL biotinylated p53 peptide (180 nM working solution) in reaction buffer to each well and mix on shaker. Incubate at 37° C. for 1 h. Add […] streptavidin-APC and Eu-anti-GST antibody mixture (6 nM Eu-anti-GST and 60 nM streptavidin-APC working solution) in TBS buffer with 0.02% BSA, shake at room temperature for 30 minutes and read using a TRF-capable plate reader at 665 and 615 nm (Victor 5, Perkin ElmerWallac). If not specified, the reagents were purchased from Sigma Chemical Co.

GST-tagged MDMX = molecular target: T1, GST-tagged MDMX (Homo sapiens, UniProt O15151); assay: HTRF binding assay of GST-tagged MDMX to p53 peptide
T1 sequence (O15151 1-490): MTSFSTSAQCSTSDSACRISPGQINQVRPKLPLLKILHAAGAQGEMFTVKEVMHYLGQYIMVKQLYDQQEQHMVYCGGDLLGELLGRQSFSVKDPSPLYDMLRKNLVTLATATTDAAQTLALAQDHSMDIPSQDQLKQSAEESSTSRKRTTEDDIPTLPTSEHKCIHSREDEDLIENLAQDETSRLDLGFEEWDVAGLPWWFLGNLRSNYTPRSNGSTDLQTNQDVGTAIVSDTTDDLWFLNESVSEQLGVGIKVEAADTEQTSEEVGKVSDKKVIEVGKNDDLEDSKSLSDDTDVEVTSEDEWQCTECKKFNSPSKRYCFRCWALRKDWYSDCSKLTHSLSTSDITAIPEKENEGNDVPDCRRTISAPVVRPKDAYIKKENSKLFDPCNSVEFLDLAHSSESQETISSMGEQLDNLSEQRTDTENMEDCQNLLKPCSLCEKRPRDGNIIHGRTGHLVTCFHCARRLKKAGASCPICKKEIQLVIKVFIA

recombinant GST-tagged MDM2, sequence (Q00987 whole entry): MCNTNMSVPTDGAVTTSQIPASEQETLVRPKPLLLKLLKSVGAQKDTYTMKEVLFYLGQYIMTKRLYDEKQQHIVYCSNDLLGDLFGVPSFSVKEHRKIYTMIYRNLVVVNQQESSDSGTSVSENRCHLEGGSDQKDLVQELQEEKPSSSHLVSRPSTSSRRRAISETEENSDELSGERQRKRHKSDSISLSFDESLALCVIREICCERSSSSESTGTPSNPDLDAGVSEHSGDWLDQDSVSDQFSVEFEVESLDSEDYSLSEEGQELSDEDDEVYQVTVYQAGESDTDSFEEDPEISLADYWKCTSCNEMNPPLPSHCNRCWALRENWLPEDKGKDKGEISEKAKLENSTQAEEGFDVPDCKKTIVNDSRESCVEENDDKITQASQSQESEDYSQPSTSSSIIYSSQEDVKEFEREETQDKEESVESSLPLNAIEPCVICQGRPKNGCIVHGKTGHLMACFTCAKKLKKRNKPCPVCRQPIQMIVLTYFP

| SMILES | pIC50 [1] | pIC50 (GST-tagged MDMX) |
| --- | --- | --- |
| CCOc1cc(Cl)c(S(C)(=O)=O)cc1C1=N[C@@](C)(c2ccc(Cl)cc2)[C@@](C)(c2ccc(Cl)cc2)N1C(=O)N1CCC(CS(C)(=O)=O)CC1 [Example 9, [(4S,5R)-2-(4-Chloro-2-ethoxy-5-methanesulfonyl-phenyl)-4,5-bis-(4-chloro-phenyl)-4,5-dimethyl-4,5-dihydro-imidazol-1-yl]-(4-methanesulfonylmethyl-piperidin-1-yl)-methanone] | 8.24 | 5.77 |
| CCCOc1cc(Cl)c(S(=O)(=O)N2CCCC2)cc1C1=N[C@@](C)(c2ccc(Cl)cc2)[C@@](C)(c2ccc(Cl)cc2)N1C(=O)N1CCN(CCCS(C)(=O)=O)CC1 [Example 55, {(4S,5R)-4,5-Bis-(4-chloro-phenyl)-2-[4-chloro-2-propoxy-5-(pyrrolidine-1-sulfonyl)-phenyl]-4,5-dimethyl-4,5-dihydro-imidazol-1-yl}-[4-(3-methanesulfonyl-propyl)-piperazin-1-yl]-methanone] | 7.74 | 5.40 |
| CC(C)Oc1cc(Cl)c(S(=O)(=O)N2CCCC2)cc1C1=N[C@@](C)(c2ccc(Cl)cc2)[C@@](C)(c2ccc(Cl)cc2)N1C(=O)N1CCC(CC(N)=O)CC1 [Example 59, 2-{1-[(4S,5R)-2-[4-Chloro-2-isopropoxy-5-(pyrrolidine-1-sulfonyl)-phenyl]-4,5-bis-(4-chloro-phenyl)-4,5-dimethyl-4,5-dihydro-imidazole-1-carbonyl]-piperidin-4-yl}-acetamide] | 8.24 | 6.71 |
| CC(C)Oc1cc(Cl)c(S(=O)(=O)N2C[C@H]3CC[C@@H](C2)O3)cc1C1=N[C@@](C)(c2ccc(Cl)cc2)[C@@](C)(c2ccc(Cl)cc2)N1C(=O)N1CCC(CC(N)=O)CC1 [Example 61, 2-{1-[(4S,5R)-2-{4-Chloro-2-isopropoxy-5-[(1R,5S)-(8-oxa-3-aza-bicyclo[3.2.1]oct-3-yl)sulfonyl]-phenyl}-4,5-bis-(4-chloro-phenyl)-4,5-dimethyl-4,5-dihydro-imidazole-1-carbonyl]-piperidin-4-yl}-acetamide] | 8.04 | 6.57 |
| CCOc1cc(Cl)c(S(=O)(=O)NC(C)(C)C)cc1C1=N[C@@](C)(c2ccc(Cl)cc2)[C@@](C)(c2ccc(Cl)cc2)N1C(=O)N1CCN(CC(=O)NCC2CCCO2)CC1 (mixture of isomers) [Example 48, 2-{4-[(4S,5R)-2-(5-tert-Butylsulfamoyl-4-chloro-2-ethoxy-phenyl)-4,5-bis-(4-chloro-phenyl)-4,5-dimethyl-4,5-dihydro-imidazole-1-carbonyl]-piperazin-1-yl}-N-(tetrahydro-furan-2-ylmethyl)-acetamide] | 7.93 | 5.87 |
| CC(C)Oc1cc(Cl)c(S(C)(=O)=O)cc1C1=N[C@@](C)(c2ccc(Cl)cc2)[C@@](C)(c2ccc(Cl)cc2)N1C(=O)N1CCC(CC(N)=O)CC1 [Example 41, 2-{1-[(4S,5R)-2-(4-Chloro-2-isopropoxy-5-methanesulfonyl-phenyl)-4,5-bis-(4-chloro-phenyl)-4,5-dimethyl-4,5-dihydro-imidazole-1-carbonyl]-piperidin-4-yl}-acetamide] | 8.16 | 6.77 |
| CCOCCN(CCOCC)C(=O)CN1CCN(C(=O)N2C(c3cc(S(C)(=O)=O)c(Cl)cc3OCC)=N[C@@](C)(c3ccc(Cl)cc3)[C@@]2(C)c2ccc(Cl)cc2)CC1 [Example 16, 2-{4-[(4S,5R)-2-(4-Chloro-2-ethoxy-5-methanesulfonyl-phenyl)-4,5-bis-(4-chloro-phenyl)-4,5-dimethyl-4,5-dihydro-imidazole-1-carbonyl]-piperazin-1-yl}-N,N-bis-(2-ethoxy-ethyl)-acetamide] | 8.30 | 6.07 |
| CCOc1cc(Cl)c(S(C)(=O)=O)cc1C1=N[C@@](C)(c2ccc(Cl)cc2)[C@@](C)(c2ccc(Cl)cc2)N1C(=O)N1CCC(NS(C)(=O)=O)CC1 [Example 33, N-{1-[(4S,5R)-2-(4-Chloro-2-ethoxy-5-methanesulfonyl-phenyl)-4,5-bis-(4-chloro-phenyl)-4,5-dimethyl-4,5-dihydro-imidazole-1-carbonyl]-piperidin-4-yl}-methanesulfonamide] | 8.28 | 5.95 |
| CCOc1cc(Cl)c(S(=O)(=O)NC(C)(C)C)cc1C1=N[C@@](C)(c2ccc(Cl)cc2)[C@@](C)(c2ccc(Cl)cc2)N1C(=O)N1CCCC(O)C1 (stereo partly drawn) [Example 54, 5-[(4S,5R)-4,5-Bis-(4-chloro-phenyl)-1-(3-hydroxy-piperidine-1-carbonyl)-4,5-dimethyl-4,5-dihydro-1H-imidazol-2-yl]-N-tert-butyl-2-chloro-4-ethoxy-benzenesulfonamide] | 7.79 | 5.40 |
| CCOc1cc(Cl)c(S(C)(=O)=O)cc1C1=N[C@@](C)(c2ccc(Cl)cc2)[C@@](C)(c2ccc(Cl)cc2)N1C(=O)N1CCN(C2CCS(=O)(=O)C2)CC1 (stereo partly drawn) [Example 20, [(4S,5R)-2-(4-Chloro-2-ethoxy-5-methanesulfonyl-phenyl)-4,5-bis-(4-chloro-phenyl)-4,5-dimethyl-4,5-dihydro-imidazol-1-yl]-[4-(1,1-dioxo-tetrahydro-thiophen-3-yl)-piperazin-1-yl]-methanone] | 8.27 | 5.44 |
| CCOc1cc(Cl)c(S(C)(=O)=O)cc1C1=N[C@@](C)(c2ccc(Cl)cc2)[C@@](C)(c2ccc(Cl)cc2)N1C(=O)N1CCN(CCS(C)(=O)=O)CC1 [Example 18, [(4S,5R)-2-(4-Chloro-2-ethoxy-5-methanesulfonyl-phenyl)-4,5-bis-(4-chloro-phenyl)-4,5-dimethyl-4,5-dihydro-imidazol-1-yl]-[4-(2-methanesulfonyl-ethyl)-piperazin-1-yl]-methanone] | 8.22 | 5.84 |
| CCOc1cc(Cl)c(S(C)(=O)=O)cc1C1=N[C@@](C)(c2ccc(Cl)cc2)[C@@](C)(c2ccc(Cl)cc2)N1C(=O)N1CCC2(CCN(CC(N)=O)CC2)CC1 [Example 21, 2-{9-[(4S,5R)-2-(4-Chloro-2-ethoxy-5-methanesulfonyl-phenyl)-4,5-bis-(4-chloro-phenyl)-4,5-dimethyl-4,5-dihydro-imidazole-1-carbonyl]-3,9-diaza-spiro[5.5]undec-3-yl}-acetamide] | 8.24 | 5.83 |
| CCOc1cc(Cl)c(S(C)(=O)=O)cc1C1=N[C@@](C)(c2ccc(Cl)cc2)[C@@](C)(c2ccc(Cl)cc2)N1C(=O)N1CCN(CCCS(=O)(=O)CC)CC1 [Example 14, [(4S,5R)-2-(4-Chloro-2-ethoxy-5-methanesulfonyl-phenyl)-4,5-bis-(4-chloro-phenyl)-4,5-dimethyl-4,5-dihydro-imidazol-1-yl]-[4-(3-ethanesulfonyl-propyl)-piperazin-1-yl]-methanone] | 8.33 | 5.84 |
| CC(C)Oc1cc(Cl)c(S(C)(=O)=O)cc1C1=N[C@@](C)(c2ccc(Cl)cc2)[C@@](C)(c2ccc(Cl)cc2)N1C(=O)N1CCN(CCCS(C)(=O)=O)CC1 [Example 40, [(4S,5R)-2-(4-Chloro-2-isopropoxy-5-methanesulfonyl-phenyl)-4,5-bis-(4-chloro-phenyl)-4,5-dimethyl-4,5-dihydro-imidazol-1-yl]-[4-(3-methanesulfonyl-propyl)-piperazin-1-yl]-methanone] | 8.21 | 6.54 |
